# Source: US20260284095A1 (Mayo Foundation for Medical Education and Research, priority 2023, published 2026)
# Assays:
# STOM = experiment: ASO screen in H4 neuroglioma cells, STOM knock-down; type: cell-based; conditions: ASO 10 nM and 100 nM in the screen
# Protocol: (§1) Expression levels of DDR2, KANK2, and STOM were confirmed to have similar expression levels in the H4 neuroglioma cells (ATCC cat #HTB-148) and PSP brain homogenate (FIG. 27), and then ASOs described in Example 3 were screened for various characteristics in H4 cells. cDNA reverse transcription kits High-Capacity cDNA Reverse Transcription Kit (High-cap, Thermo Fisher Scientific, cat #4368814) and SuperScript™ IV VILO™ (VILO, Thermo Fisher Scientific, cat #11756050) were assessed. Both cDNA synthesis kits tested quantitatively reverse transcribed RNA into cDNA (FIG. 28). qPCR master mixes TaqMan™ Fast Advanced (Fast Advance, Thermo Fisher Scientific, cat #4444556) and TaqMan™ Universal PCR Master Mix (Universal, Thermo Fisher Scientific, cat #4364340) were assessed. Both qPCR master mixes quantitatively amplified cDNA and generated detectable signals (FIG. 29). Multiplexed qPCR assays were also performed. Duplexed gene quantification yielded similar results as singleton qPCR setups (FIG. 30). ASOs targeting PPIB were used as a positive control to confirm delivery of the ASOs to H4 cells and establish ASO screening parameters (FIG. 31).
# (§2) ASOs described in Example 3 were screened in the H4 neuroglioma cells. Different concentrations of ASOs (10 nM and 100 nM) were administered and knock-down efficiency (measured by fold change of mRNA compared to non-targeting ASO treated controls) and ASO toxicity (measured by LDH assay) were determined (FIGS. 32A-32F).
# (§3) Three ASO hits were selected for each target (DDR2: D4, D5, D9; KANK2: K4, K5, K10; STOM: S1, S4, S10). The knock-down efficiency (mRNA change) and ASO safety (cell toxicity as measured by LDH assay and viability as measured by XTT assay) were repeated/performed to validate the hits, as shown in FIG. 33A-33C.
# (§4) Knock-down was assessed by measuring polypeptide levels (FIGS. 35, 40, 41) using western Blot.
# KANK2 = experiment: ASO screen in H4 neuroglioma cells, KANK2 knock-down; type: cell-based; conditions: ASO 10 nM and 100 nM in the screen
# Protocol: as §1, §2, §3, §4
# DDR2 = experiment: ASO screen in H4 neuroglioma cells, DDR2 knock-down; type: cell-based; conditions: ASO 10 nM and 100 nM in the screen
# Protocol: as §1, §2, §3, §4
# DDR2 mRNA [1] = experiment: ASO D5 target engagement in iPSC-derived neurons; type: cell-based
# Protocol: (§5) Induced pluripotent stem cells (iPSCs) were examined as a model to assess target engagement of the ASO D5 (targeting DDR2). […] ASO D5 was administered to iPSCs-derived astrocytes and neurons separately following the schematic depicted in FIGS. 38-39.
# DDR2 mRNA [2] = experiment: ASO D5 target engagement in iPSC-derived astrocytes; type: cell-based
# Protocol: as §5
# [3] = tested on: GMR>Tau Drosophila (tau-mediated eye degeneration); experiment: Dasatinib in Drosophila tau eye degeneration model; type: in vivo, Drosophila melanogaster; conditions: fly food with dasatinib 1 μM or 10 μM vs DMSO 0.5%; flies aged 5 days; blinded eye score
compound,measurement,setting,value
"S1: ASO targeting STOM, GGACTACGAATTCACAAGGC, 2'-MOE wings, phosphorothioate bonds (all phosphorothioate, sugars by position and methylation of C not given here; 2'-MOE wings)",knock-down efficiency of STOM (fold change of mRNA compared to non-targeting ASO; polypeptide by western blot),STOM,hits
"K10: ASO targeting KANK2, CGTCCTGTCTTGCTTTGTCT, 2'-MOE wings, phosphorothioate bonds (all phosphorothioate, sugars by position and methylation of C not given here; 2'-MOE wings)",knock-down efficiency of KANK2 (fold change of mRNA compared to non-targeting ASO; polypeptide by western blot),KANK2,hits
"S4: ASO targeting STOM, GCAATGGTGGTCAGTGTCTG, 2'-MOE wings, phosphorothioate bonds (all phosphorothioate, sugars by position and methylation of C not given here; 2'-MOE wings)",knock-down efficiency of STOM (fold change of mRNA compared to non-targeting ASO; polypeptide by western blot),STOM,hits
"D5: ASO targeting DDR2, CACTCTTGCAGCAGACATTC, 2'-MOE wings, phosphorothioate bonds (all phosphorothioate, sugars by position and methylation of C not given here; 2'-MOE wings)",knock-down efficiency of DDR2 (fold change of mRNA compared to non-targeting ASO; polypeptide by western blot),DDR2,hits
same,DDR2 mRNA,DDR2 mRNA [1],reduced DDR2 mRNA
same,DDR2 mRNA,DDR2 mRNA [2],reduced DDR2 mRNA
"K5: ASO targeting KANK2, CCCTCAGACACCCACAATTA, 2'-MOE wings, phosphorothioate bonds (all phosphorothioate, sugars by position and methylation of C not given here; 2'-MOE wings)",knock-down efficiency of KANK2 (fold change of mRNA compared to non-targeting ASO; polypeptide by western blot),KANK2,hits
"S10: ASO targeting STOM, ACACGCTCCACCTTTATTCC, 2'-MOE wings, phosphorothioate bonds (all phosphorothioate, sugars by position and methylation of C not given here; 2'-MOE wings)",knock-down efficiency of STOM (fold change of mRNA compared to non-targeting ASO; polypeptide by western blot),STOM,hits
"K4: ASO targeting KANK2, GCAAGCCAGTCTACATCAAG, 2'-MOE wings, phosphorothioate bonds (all phosphorothioate, sugars by position and methylation of C not given here; 2'-MOE wings)",knock-down efficiency of KANK2 (fold change of mRNA compared to non-targeting ASO; polypeptide by western blot),KANK2,hits
Cc1nc(Nc2ncc(C(=O)Nc3c(C)cccc3Cl)s2)cc(N2CCN(CCO)CC2)n1 [dasatinib],tau-mediated eye degeneration,[3],dosage-dependent reduction
"D4: ASO targeting DDR2, ACAGAGTCAGGACAAATGGC, 2'-MOE wings, phosphorothioate bonds (all phosphorothioate, sugars by position and methylation of C not given here; 2'-MOE wings)",knock-down efficiency of DDR2 (fold change of mRNA compared to non-targeting ASO; polypeptide by western blot),DDR2,hits
"D9: ASO targeting DDR2, CTGCTCATTCCAAAGTCAGC, 2'-MOE wings, phosphorothioate bonds (all phosphorothioate, sugars by position and methylation of C not given here; 2'-MOE wings)",knock-down efficiency of DDR2 (fold change of mRNA compared to non-targeting ASO; polypeptide by western blot),DDR2,hits
